The results in this text go back to patent EP2829536A1, “4-Nitro-5-dichloromethylpyrazol derivatives for the treatment of infectious diseases” (priority 2013, dated 2015).

The structures appear in SMILES notation. “Also recorded” adds a separate entry of the source. Read-outs that look alike come from different tables or passages of the source.

The test system of one data set is M. tuberculosis H37Rv. The experiment in a line: Minimal inhibitory concentration by resazurin microtiter assay (REMA). The following applies: Mycobacterium tuberculosis, 168 h, 7 days incubation, read-out: (MIC) against M. tuberculosis H37Rv. It counts as cell-based. In general terms: The colour change of resazurin is a common sign of viable cells or microbes.
In data set [1] the test system is L929 cell line. The experiment in a line: MTT assay, effect on proliferation (5 days). The format is cell-based. To be noted: Mus musculus, L929, 120 h. Background: Formazan colour is commonly taken as a measure of viable cells.
Data set [2] has as its system L929 cell line. Briefly: MTT assay, acute toxic effect (24 h). It counts as cell-based. The following applies: Mus musculus, L929, 24 h; 1 day (acute toxic effect).
Data set [3] concerns M. bovis BCG. The format is cell-based.
Data set [4] is described as follows: Hepatic microsomal stability. It counts as in vitro ADME, mice.
For data set [5], the system named is H37Rv Pasteur M. tuberculosis strain. Briefly: Effectivity in mice infected with M. tuberculosis (bacillary load in lung and spleen). The format is in vivo. To be noted: for p (Lungs) / p (Spleen): vs sham. As to the method: Lx079 as well as two other components, Lx059 which is 10% DMSO in PBS buffer and Lx069 which is a combination of ethambutol (0.8 mg/ml) and myxopyronine (0.2 mg/ml), were tested for drug effectivity in mice. Two controls were included in the study (sham, non treated; and treated with Isoniazide (INH, 25 mg/kg).
The animals were infected at time point 0 with M. tuberculosis through an airborne infection apparatus (Glas-col Inc., Terre Haute, IN, USA) for infection with a low dose of H37Rv Pasteur M. tuberculosis strain. Nebulization provided an approximate uptake of 20-50 bacilli by mice lungs. The treatments and controls results were processed blindly. The experiment was run including 10 C57BL/6 mice per group. A volume of 0.2mL of each treatment was administered orally every day for 5 days, on week 2 post infection.
Mice were euthanized on week 3 with isoflurane (inhalation excess), and lung and spleen samples removed to and mechanically disrupted in order to obtain tissue homogenates to be plated cultured in Becton Dickinson 7H11 Middlebrook agar (Bennex Ltd, Shannon, Ireland) and incubated at 37 °C. Viable bacteria (Colony Forming Units, CFUs) were counted four weeks after, data being recorded as the log of the number of CFUs recovered per organ. The results of the different groups were represented graphically, compared and evaluated for statistically significant differences (non parametric comparison between each candidate and each control, Mann Whitney test), with the differences being considered significant at P≤0.05 (Graphpad software).
The effect on the bacillary load of each candidate results have been logarithmically represented as CFU/mL in the graphs attached. The lung and spleen results of each candidate and controls evaluated have been represented together (as box and whiskers, 5-95 percentiles plotted) and also per candidate with sham (results of each mouse and median and standard deviation plotted). Statistically significant differences (p<0.05) are marked with * if existing between the evaluated group and sham.

The subject of data set [6] is M. bovis BCG. The experiment in a line: microbe, parasite or virus in culture. The format is cell-based. The following applies: Mycobacterium tuberculosis variant bovis BCG.
A further data set relates to PtK2 cells. The experiment in a line: Effect on cell morphology / endoplasmic reticulum by immunocytochemistry (ICC). The format is cell-based, rat kangaroo. To be noted: for morphological effect / ER stress: PtK2 cells, overnight. As to the method:
Cell lines and media: Cells were grown at 37°C and 5% CO2 in the following media supplemented with 10 % FBS(Gibco): • L-929 cells (mouse connective tissue fibroblast: Dulbecco's modified Eagle's medium (DMEM), Lonza • PtK2 cells (rat kangaroo kidney epithelial cells): Minimum Essential Medium (MEM) medium, supplemented with 1 % non-essential amino acids and 1 % glutamax, Invitrogen.
The effects of the tested compounds on cell proliferation and the acute toxic effects were assayed in vitro on L929 cell line. The metabolic activity was measured by means of (MTT, (3-(4,5-Dimethylthiazol-2-yl)-2,5-diphenyltetrazolium bromide) cell survival colorimetric assay. Effect on proliferation: 60 µl of serial dilutions of the test compounds were added to 120 µl aliquots of a cell suspension (50,000 cells/ml) in 96-well microplates then incubated 5 days at 37°C and 5% CO2. 20 µl MTT dye were added to a final concentration of 0.5 mg/ml. After 2 h the precipitate of formazan crystals was centrifuged, and the supernatant discarded. After washing with PBS, the precipitate was dissolved in 100 µl of acidified propanol. The plates were stirred for 20 minutes and the optical density of the resulting color was measured at 590 nm. Acute toxic effect: It was investigated by plating 120 µl aliquots of a cell suspension (100,000-200,000 cells/ml) in 96-well microplates. The cells were incubated at 37°C and 5% CO2 and allowed to grow for two days to stop the cell propagation. Then 60 µl of serial dilutions of the test compounds were added and incubated for further 24h. Then the MTT assay was performed as described before. Results were expressed as the percentage of cellular viability in comparison to cells that were treated only with the vehicle. The IC50 values were determined as the concentrations at which cells developed 50% of the absorbance of untreated control cells as estimated from the dose-response curves of two parallel experiments. Immunofluorescence staining: The effects of substances on the phenotypical changes of cell shape and adhesion were investigatedin the potoroo (PtK2) cells after staining of the nucleus and the endoplasmic reticulum (ER). PtK2 cells were grown on cover slips in 4-well plates. semi-confluent cells were treated with test compounds and the plates were incubated over the night. The cells were fixed with cold methanol /acetone (1:1) for 10 min. Then the cells were washed with PBS and the primary antibody (anti GRP-94, thermoscientific) was added and incubated for 45 min and washed with PBS. Secondary antibody (Alexaflour goat anti-rat 488, Invitrogen) was then added to the cells and incubated for additional 45 min. Cells were washed with PBS and Cover slips were mounted in anti-fade mounting medium with DAPI (Invitrogen). Images were taken with a CCD camera attached to a fluorescence microscope.
The effects of substances on the phenotypical changes of cell shape and adhesion were investigated by the technique of immunocytochemistry (ICC). The endoplasmic reticulum (ER) was investigated upon treatment of the potoroo cells (PtK2) cells with/without test compounds.
PtK2 cells were grown on cover slips in 4-well plates. semi-confluent cells were treated with test compounds and the plates were incubated over the night. The cells were fixed with cold methanol /acetone for 10 min. Then the cells were washed with PBS and the primary antibody (anti GRP-94, thermoscientific) was added and incubated for 45 min and washed with PBS. […]

For data set [7] the following is noted: mouse, in vivo.
For data set [8] the following is noted: female, C57/BL6, mouse, in vivo; for F (bioavailability): po.
Description: (§1) Mice were weighed and checked according to the protocols and observation data sheets that were requested. Animals were followed for weight loss, apparent good health (bristled hair and wounded skin) and behaviour (signs of aggressiveness or isolation). Animals: Young adult (6-8 weeks old) female C57/BL6 mice, 20 mice for acute oral toxicity testing and 81 mice for PK experiment were used. The animals were nulliparous and non-pregnant weighing 20 ±1.5 g each. They were maintained in their cages provided with a standard laboratory rodent diet and unlimited supply of drinking water and were allowed to acclimatize to the laboratory conditions for seven days before starting the experiments. The temperature in the experimental animal room was kept at 22°C ± 3°C and the relative humidity was 50 ± 20 %. Lighting was artificial with the sequence 12 hours light and 12 hours dark. Substance formulation for in vivo model: Doses were prepared in 5% DMSO in sterile water for oral dosing through oral gavage at a dose volume of 0.3 ml, and in 5% DMSO in PBS, pH 7.4 for IV bolus injection via tail vein at a dose volume 0.1 ml.
(§2) The animals were divided into one IV group (27 mice), 2 oral groups (24 mice each), control IV group (3 mice) and control oral group (3 mice). The IV group and one oral group were dosed with 12.5 mg/kg and the other oral group was dosed with 25 mg/kg, while the control groups received the vehicle. All blood samples were collected at 15 and 30 min and 1, 2, 4, 6, 8, and 24 h after oral dosing, and at 5, 15, and 30 min and 1, 2, 4, 6, 8, and 24 h following intravenous administration. The blood was collected from the control groups at 24 h. Mice were euthanized with isoflurane and a 0.3 mL aliquot of blood was collected via terminal bleed from three mice at each time point. Blood samples were collected in heparin as anticoagulant and plasma was harvested by centrifugation at 10,000 rpm for 2 minutes. Plasma samples were kept at -80 °C until analysis.
Another data set in a line: in vivo. To be noted: female, C57/BL6, mouse; for bioavailability: F (bioavailability).
A short description of data set [9]: Acute oral toxicity in mice. To be noted: for No. of dead mice: 5 mice, 14 days; for % Cumulative of dead mice: Reed-Muench method.
[10] abbreviates: dose group Lx079-1 (dose not given).
Where [11] appears, read: dose group Lx079-2 (dose not given).
Setting [12] is: dose group Lx079-3 (dose not given).
[13] abbreviates: dose group Lx079-4 (dose not given).
The mark [14] stands for this setting: dose group Lx079-5 (dose not given).
Setting [15] is: dose group Lx079-6 (dose not given).

Description for in vivo: as §1, §2

One may read the IC50 as the concentration that gives 50% inhibition. A high value points to lower potency. For orientation: AUC means concentration integrated over time. A low value points to less exposure. The clearance is the volume of plasma or blood freed of the substance per unit of time. A word on the bioavailability: it is the share of a dose that reaches the circulation, judged against a reference dose that is usually intravenous. Read a low bioavailability as poor availability. In general, LD50 refers to the dose expected to kill half of the subjects tested. A high value points to a less toxic substance. Consider `CNCCOc1nn(-c2c(Cl)cc(Cl)cc2Cl)c(C(Cl)Cl)c1[N+](=O)[O-].Cl` [LX079, 2-((5-(Dichloromethyl)-4-nitro-1-(2,4,6-trichlorophenyl)-1H-pyrazol-3-yl)oxy)-N-methylethanaminium chloride], for which the MIC with M. tuberculosis H37Rv stood at 0.18 µg/mL; against M. bovis BCG [6] it was 0.6 µg/mL. Moreover, the IC50 in the data set on L929 cell line [1] came to 2.2 µg/mL; in the data set on L929 cell line [2], 5.5 µg/mL. Further, the “decrease of log CFU” value in the data set on M. bovis BCG [3] (2 µg/ml, 72 hours, in comparison to the untreated controls) is on record as “around 2 log CFU”. Further, in the data set on M. bovis BCG [3] (infected macrophage model, Fig. 1), the “intracellular activity against M. bovis BCG” value is listed as “significant intracellular activity”. The “t1/2 (in vitro)” value in [4] (1 µM, mice microsomes 0.5 mg/mL, NADPH, 37 °C) stood at 5.937 ± 2.36 min. Further, in [4] (mouse, pooled liver microsomes, pH 7.4, 1 µM, mice microsomes 0.5 mg/mL, NADPH, 37 °C, read-out: t1/2 (in vitro)), the half-life at 1 µM worked out at 5.94 ± 2.36 min. In addition, in data set [4] (mouse, pooled mouse liver microsomes, pH 7.4, mice microsomes, corrected for binding to microsomes, read-out: CLint, inc), the microsomal CLint at 1 µM came out at 2820 ± 1120 µL/min/mg. Further, the “CLint (hepatic intrinsic clearance)” value in [4] (scaled up from the in vitro t1/2, SMW: standard mouse weight) amounted to 221.81± 88.23 ml/min/SMW. Further, the “effect on the bacillary load in lungs and spleen compared to sham” value in [5] (C57BL/6 mice, oral, every day for 5 days on week 2 post infection) was “decrease the bacillary load in both in lungs and spleen; also recorded: clear positive inhibitory effect on the survival of the TB pathogen”. Moreover, the “p (Lungs)” value in data set [5] (setting [10]) worked out at 0.0032; in data set [5] (setting [11]) it was 0.0002; in data set [5] (setting [12]), 0.0010; in [5] (setting [13]), 0.0004; in data set [5] (setting [14]), 0.0002; in data set [5] (setting [15]), 0.0002. Also, the “p (Spleen)” value in [5] (setting [10]) is 0.0009; in data set [5] (setting [11]), 0.0343; in data set [5] (setting [12]), 0.0002; in data set [5] (setting [13]) it was 0.0117; in data set [5] (setting [14]), 0.0164; in [5] (setting [15]), 0.0031. Moreover, the “morphological effect / ER stress” value with PtK2 cells (5µg/ml) is “did not produce morphological abnormalities”; with PtK2 cells (6.6 µg/ml), “induced massive ER stress”. Besides, in the data set with PtK2 cells (concentration 25 times higher than the MIC), the “morphological changes of the treated cells after immunofluorescence staining” value was “no morphological changes”. The “microscopic examination of liver, spleen, lungs, and kidneys” value in [7] is on record as “No pathological abnormalities were detected”. Moreover, the C0 was 660 ± 70 ng/mL in data set [8] (iv, 12.5 mg/kg) and 660 ± 70 ng/mL in the data set “in vivo” (iv, 12.5 mg/kg). Moreover, the CL in [8] (iv, 12.5 mg/kg) came to 394 ± 20.3 mL/min/kg. For the same compound, the “K (elimination rate constant)” value in [8] (iv, 12.5 mg/kg) is given as 1.79 ± 0.44. The compound further registered a t1/2 in [8] (iv, 12.5 mg/kg) of 25.8 min. Besides, the “time in which the plasma concentration was exceeding the in vitro MIC (T > MIC)” value in data set [8] (iv, 12.5 mg/kg) is listed as “less than 1 hour”. The “F (bioavailability)” value in data set [8] (12.5 mg/kg) is 27.583 ± 2.457%; in data set [8] (25 mg/kg), 32.662 ± 7.715%. For the same compound, the AUC amounted to 530 ± 30 ng·h/mL in the data set “in vivo” (iv, 12.5 mg/kg); 150 ± 20 ng·h/mL in the data set “in vivo” (po, 12.5 mg/kg); 350 ± 70 ng·h/mL in “in vivo” (po, 25 mg/kg). In the data set “in vivo” (iv, 12.5 mg/kg), this compound had a clearance of 394 mL/min/kg. Further, the half-life in “in vivo” (iv, 12.5 mg/kg) is 25.8 ± 16.2 min. Moreover, the bioavailability in the data set “in vivo” (po, 12.5 mg/kg) was found to be 27.6 ± 2.46%; in “in vivo” (po, 25 mg/kg), 32.7 ± 7.72%. Moreover, the figures for the “No. of dead mice” value in data set [9] (62.5 mg/kg single oral dose), in data set [9] (125 mg/kg single oral dose) and in [9] (250 mg/kg single oral dose) were 0, 2 and 1, respectively. Also, the entries for the “% Cumulative of dead mice” value in data set [9] (62.5 mg/kg single oral dose), in data set [9] (125 mg/kg single oral dose) and in [9] (250 mg/kg single oral dose) were 0%, 22% and 42.85%, respectively. This compound had an LD50 at 14 days in [9] (female, C57/BL6, mouse, in vivo, po) greater than 250 mg/kg.

As to `CNCCOc1nn(-c2c(Cl)cc(C(F)(F)F)cc2Cl)c(C(Cl)Cl)c1[N+](=O)[O-].Cl` [Lx088, 2-((1-(2,6-Dichloro-4-(trifluoromethyl)phenyl)-5-(dichloromethyl)-4-nitro-1H-pyrazol-3-yl)oxy)-N-methylethanaminium chloride], the MIC against M. bovis BCG [6] turned out to be 0.781 µg/mL. Also, the “morphological effect / ER stress” value in the data set with PtK2 cells (6.6 µg/ml) is listed as “produced less ER stress”; with PtK2 cells (13.3 µg/ml) it was “induced massive ER stress”.

Regarding `CCNCCOc1nn(-c2c(Cl)cc(Cl)cc2Cl)c(C(Cl)Cl)c1[N+](=O)[O-].Cl` [Lx089, 2-((5-(Dichloromethyl)-4-nitro-1-(2,4,6-trichlorophenyl)-1H-pyrazol-3-yl)oxy)-N-ethylethanaminium chloride], the MIC in the data set on M. bovis BCG [6] is 0.781 µg/mL.
